# Reference: patent US6737383B1, “Herbicidal oxadiazolidines” (priority 1999, dated 2004)
# Key:
# [1] = tested on: wheat; assay: Test B pre/postemergence wheat; format: in vivo, Triticum aestivum
# Summary of the method: (§1)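 Response is a visual 0-to-10 score relative to untreated plants, where 0 means no effect and 10 means complete control, taken twelve to sixteen days after application. Treatments went onto soil at planting and onto foliage of 1- to 4-leaf plants, using a surfactant-containing non-phytotoxic solvent.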
# [2] = tested on: pigweed; assay: Test B pre/postemergence pigweed; format: in vivo, Amaranthus retroflexus
# Summary of the method: as §1
# [3] = tested on: crabgrass; assay: Test B pre/postemergence crabgrass; format: in vivo, Digitaria sanguinalis
# Summary of the method: as §1
# [4] = tested on: purple nutsedge; assay: Test B pre/postemergence purple nutsedge; format: in vivo, Cyperus rotundus
# Summary of the method: as §1
# [5] = tested on: rice; assay: Test B flood test rice; format: in vivo, Oryza sativa
# Summary of the method: (§2)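 Flood test on plants grown to the 2-leaf stage; treated plants kept in greenhouse twelve to sixteen days, then visually rated against controls on a 0 (no effect) to 10 (complete control) scale.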
# [6] = tested on: surinam grass; assay: Test B pre/postemergence surinam grass; format: in vivo, Brachiaria decumbens
# Summary of the method: as §1
# [7] = tested on: wild oat; assay: Test B pre/postemergence wild oat; format: in vivo, Avena fatua
# Summary of the method: as §1
# [8] = tested on: morningglory; assay: Test B pre/postemergence morningglory; format: in vivo, Ipomoea hederacea
# Summary of the method: as §1
# [9] = tested on: duck salad; assay: Test B flood test duck salad; format: in vivo, Heteranthera limosa
# Summary of the method: as §2
# [10] = tested on: soybean; assay: Test B pre/postemergence soybean; format: in vivo, Glycine max
# Summary of the method: as §1
# [11] = tested on: bedstraw; assay: Test B pre/postemergence bedstraw; format: in vivo, Galium aparine
# Summary of the method: as §1
# [12] = tested on: corn; assay: Test B pre/postemergence corn; format: in vivo, Zea mays
# Summary of the method: as §1
# [13] = tested on: giant foxtail; assay: Test B pre/postemergence giant foxtail; format: in vivo, Setaria faberii
# Summary of the method: as §1
# [14] = tested on: rape; assay: Test B pre/postemergence rape; format: in vivo, Brassica napus
# Summary of the method: as §1
# [15] = tested on: blackgrass; assay: Test B pre/postemergence blackgrass; format: in vivo, Alopecurus myosuroides
# Summary of the method: as §1
# [16] = tested on: velvetleaf; assay: Test B pre/postemergence velvetleaf; format: in vivo, Abutilon theophrasti
# Summary of the method: as §1
# [17] = Preemergence, Rate 62 g/ha, scale of 0 to 10 where 0 is no effect and 10 is complete control
# [18] = Preemergence, Rate 250 g/ha, scale of 0 to 10 where 0 is no effect and 10 is complete control
# [19] = Preemergence, Rate 500 g/ha, scale of 0 to 10 where 0 is no effect and 10 is complete control
# [20] = Rate 62 g/ha, Postemergence, scale of 0 to 10 where 0 is no effect and 10 is complete control
# [21] = Rate 125 g/ha, Postemergence, scale 0 to 10
# [22] = Rate 125 g/ha, Preemergence, scale of 0 to 10 where 0 is no effect and 10 is complete control
# [23] = Rate 500 g/ha, Postemergence, scale 0 to 10, 0 no effect, 10 complete control
# [24] = Rate 62 g/ha, headed Pre-emergence (flood test species), scale 0 to 10 (0 no effect, 10 complete control)
# [25] = Rate 125 g/ha, Pre-emergence, flood test species, scale 0 to 10 where 0 is no effect and 10 is complete control
# [26] = Rate 250 g/ha, Pre-emergence, flood-test species, scale 0 to 10, 0 is no effect, 10 is complete control
# [27] = Rate 500 g/ha, Pre-emergence, flood test species, scale 0 to 10 (0 no effect, 10 complete control)
smiles,measurement,setting,value
CCCCc1ccc(N(C(=O)n2oc(=O)n(-c3ccccc3C)c2=O)C(C)C)cc1 [Compound 229],Wheat plant response rating,[1]; [17],0
same,Wheat plant response rating,[1]; [18],0
same,"Plant response rating, Wheat",[1]; [19],0
same,Wheat plant response rating,[1]; [20],0
same,Wheat plant response rating,[1]; [21],0
same,Wheat plant response rating,[1]; [22],0
same,"Plant response rating (0 to 10; 0 is no effect, 10 is complete control), Wheat","[1]; Rate 250 g/ha, Postemergence",0
same,Wheat plant response rating,[1]; [23],0
same,Redroot pigweed plant response rating,[2]; [17],0
same,Redroot pigweed plant response rating,[2]; [18],0
same,"Plant response rating, Redroot pigweed",[2]; [19],0
same,Redroot pigweed plant response rating,[2]; [20],0
same,Redroot pigweed plant response rating,[2]; [21],0
same,Redroot pigweed plant response rating,[2]; [22],0
same,"Plant response rating (0 to 10; 0 is no effect, 10 is complete control), Redroot pigweed","[2]; Rate 250 g/ha, Postemergence",0
same,Redroot pigweed plant response rating,[2]; [23],0
same,Crabgrass plant response rating,[3]; [17],0
same,Crabgrass plant response rating,[3]; [18],0
same,"Plant response rating, Crabgrass",[3]; [19],0
same,Crabgrass plant response rating,[3]; [20],0
same,Crabgrass plant response rating,[3]; [21],0
same,Crabgrass plant response rating,[3]; [22],0
same,"Plant response rating (0 to 10; 0 is no effect, 10 is complete control), Crabgrass","[3]; Rate 250 g/ha, Postemergence",0
same,Crabgrass plant response rating,[3]; [23],0
same,Nutsedge plant response rating,[4]; [17],0
same,Nutsedge plant response rating,[4]; [18],0
same,"Plant response rating, Nutsedge",[4]; [19],0
same,Nutsedge plant response rating,[4]; [20],0
same,Nutsedge plant response rating,[4]; [21],0
same,Nutsedge plant response rating,[4]; [22],0
same,"Plant response rating (0 to 10; 0 is no effect, 10 is complete control), Nutsedge","[4]; Rate 250 g/ha, Postemergence",0
same,Nutsedge plant response rating,[4]; [23],0
same,Rice plant response rating,[5]; [24],0
same,Rice plant response rating,[5]; [25],0
same,Rice plant response rating,[5]; [26],0
same,Rice plant response rating,[5]; [27],0
same,B. signalgrass plant response rating,[6]; [17],0
same,B. signalgrass plant response rating,"[6]; Preemergence, Rate 250 g/ha, scale 0 to 10, 0 is no effect, 10 is complete control",0
same,"Plant response rating, B. signalgrass",[6]; [19],0
same,B. signalgrass plant response rating,[6]; [20],0
same,B. signalgrass plant response rating,"[6]; Rate 125 g/ha, Postemergence, scale 0 (no effect) to 10 (complete control)",0
same,B. signalgrass plant response rating,[6]; [22],0
same,"Plant response rating (0 to 10; 0 is no effect, 10 is complete control), B. signalgrass","[6]; Rate 250 g/ha, Postemergence",0
same,B. signalgrass plant response rating,[6]; [23],0
same,Wild oats plant response rating,[7]; [17],0
same,Wild oats plant response rating,[7]; [18],0
same,"Plant response rating, Wild oats",[7]; [19],0
same,Wild oats plant response rating,[7]; [20],0
same,Wild oats plant response rating,[7]; [21],0
same,Wild oats plant response rating,[7]; [22],0
same,"Plant response rating (0 to 10; 0 is no effect, 10 is complete control), Wild oats","[7]; Rate 250 g/ha, Postemergence",0
same,Wild oats plant response rating,[7]; [23],0
same,Morningglory plant response rating,[8]; [17],0
same,Morningglory plant response rating,[8]; [18],0
same,"Plant response rating, Morningglory",[8]; [19],0
same,Morningglory plant response rating,[8]; [20],0
same,Morningglory plant response rating,[8]; [21],0
same,Morningglory plant response rating,[8]; [22],0
same,"Plant response rating (0 to 10; 0 is no effect, 10 is complete control), Morningglory","[8]; Rate 250 g/ha, Postemergence",0
same,Morningglory plant response rating,[8]; [23],0
same,Ducksalad plant response rating,[9]; [24],0
same,Ducksalad plant response rating,[9]; [25],0
same,Ducksalad plant response rating,[9]; [26],0
same,Ducksalad plant response rating,[9]; [27],0
same,Soybean plant response rating,[10]; [17],0
same,Soybean plant response rating,[10]; [18],0
same,"Plant response rating, Soybean",[10]; [19],0
same,Soybean plant response rating,[10]; [20],0
same,Soybean plant response rating,[10]; [21],0
same,Soybean plant response rating,[10]; [22],0
same,"Plant response rating (0 to 10; 0 is no effect, 10 is complete control), Soybean","[10]; Rate 250 g/ha, Postemergence",1
same,Soybean plant response rating,[10]; [23],2
same,Bedstraw plant response rating,[11]; [17],0
same,Bedstraw plant response rating,[11]; [18],0
same,"Plant response rating, Bedstraw",[11]; [19],0
same,Bedstraw plant response rating,[11]; [20],0
same,Bedstraw plant response rating,[11]; [21],0
same,Bedstraw plant response rating,[11]; [22],0
same,"Plant response rating (0 to 10; 0 is no effect, 10 is complete control), Bedstraw","[11]; Rate 250 g/ha, Postemergence",0
same,Bedstraw plant response rating,[11]; [23],0
same,Corn plant response rating,[12]; [17],0
same,Corn plant response rating,[12]; [18],0
same,"Plant response rating, Corn",[12]; [19],0
same,Corn plant response rating,[12]; [20],0
same,Corn plant response rating,[12]; [21],0
same,Corn plant response rating,[12]; [22],0
same,"Plant response rating (0 to 10; 0 is no effect, 10 is complete control), Corn","[12]; Rate 250 g/ha, Postemergence",0
same,Corn plant response rating,[12]; [23],0
same,Giant foxtail plant response rating,[13]; [17],0
same,Giant foxtail plant response rating,[13]; [18],0
same,"Plant response rating, Giant foxtail",[13]; [19],0
same,Giant foxtail plant response rating,[13]; [20],0
same,Giant foxtail plant response rating,[13]; [21],0
same,Giant foxtail plant response rating,[13]; [22],0
same,"Plant response rating (0 to 10; 0 is no effect, 10 is complete control), Giant foxtail","[13]; Rate 250 g/ha, Postemergence",0
same,Giant foxtail plant response rating,[13]; [23],0
same,Rape plant response rating,[14]; [17],0
same,Rape plant response rating,[14]; [18],0
same,"Plant response rating, Rape",[14]; [19],0
same,Rape plant response rating,[14]; [20],0
same,Rape plant response rating,[14]; [21],0
same,Rape plant response rating,[14]; [22],0
same,"Plant response rating (0 to 10; 0 is no effect, 10 is complete control), Rape","[14]; Rate 250 g/ha, Postemergence",0
same,Rape plant response rating,[14]; [23],0
same,Blackgrass plant response rating,[15]; [17],0
same,Blackgrass plant response rating,[15]; [18],0
same,"Plant response rating, Blackgrass",[15]; [19],0
same,Blackgrass plant response rating,[15]; [20],0
same,Blackgrass plant response rating,[15]; [21],0
same,Blackgrass plant response rating,[15]; [22],0
same,"Plant response rating (0 to 10; 0 is no effect, 10 is complete control), Blackgrass","[15]; Rate 250 g/ha, Postemergence",0
same,Blackgrass plant response rating,[15]; [23],0
same,Velvetleaf plant response rating,[16]; [17],0
same,Velvetleaf plant response rating,[16]; [18],0
same,"Plant response rating, Velvetleaf",[16]; [19],0
same,Velvetleaf plant response rating,[16]; [20],0
same,Velvetleaf plant response rating,[16]; [21],0
same,Velvetleaf plant response rating,[16]; [22],0
same,"Plant response rating (0 to 10; 0 is no effect, 10 is complete control), Velvetleaf","[16]; Rate 250 g/ha, Postemergence",0
same,Velvetleaf plant response rating,[16]; [23],2
